According to US7314866B2, “Ku-70-derived Bax-suppressing peptides and use thereof for the protection of damaged cells” (Bloodcenter of Wisconsin, Inc., priority 2002, dated 2008):
Entries after “also recorded” stand apart in the source; their conditions may differ. Each block holds one molecule with its values, some of them ahead of it. Where a SMILES comes first, the peptide text is derived from it. Where no end group is shown, it is not given here. The star is where a group is joined. FITC = O=C1OC2(c3ccc(O)cc3Oc3cc(O)ccc32)c2ccc(NC(=S)*)cc21; Biotin = O=C1N[C@H]2[C@H](CS[C@H]2CCCCC(=O)*)N1; Cbz = O=C(OCc1ccccc1)*; CH2F = FC*

Legend:
[1] = target: T1, endogenous Bax (Mus musculus, UniProt Q07813); assay: Scatchard analysis of the binding of FITC-V5 and Bax; conditions: Bax-immunodepleted cell lysates
T1 construct: endogenous in cells; host or cells: Ku70-deficient mouse embryonic fibroblasts, cytosol fraction
Method: (§1) FIG. 4A: One day following UVC-irradiation or STS-treatment in the absence (UV and STS) or presence of 200 uM negative control (NC) peptide (UV+NC and STS+NC) or V5 peptide (UV+V5 and STS+V5), subcellular fractionation of HeLa cells (10^6 cells) was performed. FoF1 ATP synthase subunit α (F1α) was used to mark the mitochondrial fraction. HM stands for “Heavy Membrane” fraction containing mitochondria. FIG. 4C: cytochrome c release from mitochondria is inhibited by BIP, but not z-VAD-fmk. HeLa cells (10^6 cells) were treated with 200 nM STS in the presence or absence of 200 uM negative control (NC) peptide, V5 peptide, or z-VAD-fmk for 24 hours. Cytochrome c released from mitochondria into cytosol was analyzed by subcellular fractionation followed by Western blot analysis of cytochrome c (cyt c) as well as mitochondrial FoF1-ATP-synthase subunit F1α (F1α) as described in Methods. […] Caspase activity was assessed as described in Methods. […]
Ku70-deficient MEFs (10^7 cells) were lysed in 200 ul of “detergent-free hypotonic buffer” (hypotonic (5 mM NaCl) phosphate buffered saline, pH 7.4) containing protease inhibitors (100 times dilution of Protease Inhibitors Cocktail; Sigma) according to the previously reported method (Hsu and Youle, supra, 1998). […] Kd was calculated by Scatchard plot. […]

[2] = system: HEK293T cells; assay: Bax-induced apoptosis in HEK293T cells (pcDNA3-Bax transfection, Hoechst staining); type: cell-based, human; conditions: added to the culture medium
Method: FIG. 1 illustrates that new peptides designed from Ku70 show anti-Bax activity. FIG. 1A: scheme of Ku70 full-length (Ku70 wt), Ku701-577 (Ku70Δ578–609), or Ku70578-609 (Ku70Δ1–577). FIG. 1C: HEK293T cells were transfected with 1.0 ug of pCMV-2B-control vector (Control) or pcDNA3-Bax (Bax) together with 2.0 ug of pCMV-2B-Ku70 wt (Ku70 wt), pCMV-2B-Ku701-577 (Ku701-577), or pCMV-2B-Ku70578-609 (Ku70578-609). All the cells were also co-transfected with 0.5 ug pEGFP for the marking of transfected cells. Apoptosis in the transfected cells was analyzed 24 hours following transfection with Hoechst dye staining of the nucleus as described in Methods. FIG. 1D: HEK293T cells were incubated with 200 uM peptide composed of Ku70578-587 or Ku70596-600 for 4 hours using BioPorter reagent, and then transfected with 1.0 ug of pCDNA3-control vector (Control) or pcDNA3-Bax (Bax). The number of apoptotic cells was determined as described in FIG. 1C. FIG. 1E: HEK293T cells (10^6 cells) were incubated with 200 uM IPMIK (negative control peptide) or VPMLK (V5) and PMLKE (P5) peptides at the indicated concentrations for 1 hour and then incubated cells were transfected with 1.0 ug of pcDNA3-Bax. Also, unincubated cells were transfected with 1.0 ug of pcDNA3-Bax in the presence or absence of 200 uM z-VAD-fmk. The number of apoptotic cells was determined as described in FIG. 1C. FIG. 1F: Summary of the anti-Bax activity and sequence of all peptides used.
HEK293T and HeLa cells were cultured in MEM supplemented with 10% fetal bovine serum (FBS) and Du145 cells and mouse embryonic fibroblasts (MEFs) were in DMEM with 10% FBS. Transfection of the plasmids was performed by SuperFect (Qiagen) according to the manufacturer's manual. Apoptosis was induced by pcDNA3-human Bax (Bax-encoding plasmid)-transfection, Staurosporin (STS)-treatment and UVC-irradiation. The amount of the plasmids, the concentration of STS, and the energy of UVC-irradiation are described in the figure legends. Apoptosis in the transfected cells was analyzed as follows: A plasmid encoding enhanced green fluorescent protein (EGFP) (0.5 ug to 10^6 cells) was transfected to all the groups to mark the transfected cells. After the treatment, cells were stained with Hoechst dye and cells with apoptotic nuclei were counted in GFP-expressing cells under the fluorescent microscope as described by Matsuyama, et al., J. Biol. Chem. 273:30995–31001, 1998. Each point in the figures showing percentages of apoptosis represents the mean +/−SE of three experiments. Caspase activities of cells were measured by detecting the cleavage of fluorogenic substrate of Caspase (DEVD-afc) as previously described.
BioPorter-based peptide delivery was performed 4 hours before apoptosis induction.

[3] = system: Caspase; assay: Caspase activity (DEVD-afc cleavage); type: cell-based, human; conditions: HeLa cells, 200 nM STS, 200 uM, 24 hours
Method: as §1
HEK293T and HeLa cells were cultured in MEM supplemented with 10% fetal bovine serum (FBS) and Du145 cells and mouse embryonic fibroblasts (MEFs) were in DMEM with 10% FBS. […] Apoptosis in the transfected cells was analyzed as follows: A plasmid encoding enhanced green fluorescent protein (EGFP) (0.5 ug to 10^6 cells) was transfected to all the groups to mark the transfected cells. […]

[4] = system: Bax; assay: Co-precipitation of biotin-labeled peptides and endogenous Bax using streptavidin beads; type: binding, human; conditions: HEK293T lysates, CHAPS buffer
[5] = target: T2, human Bax (human, UniProt Q07812 1-192); assay: conclusion drawn from the biotin-peptide streptavidin pull-down
T2 construct: Protein in cell lysates or cells, not purified; also called endogenous Bax; pcDNA3-Bax (human)
Method: The interaction of BIP and Bax was confirmed by experiments using the system of biotin-labeled BIP and streptavidin beads. Biotin-labeled BIP (biotin-VPMLK; SEQ ID NO: 1), but not negative control peptide (biotin-IPMIK; SEQ ID NO: 5) precipitated Bax from the cell lysates when the streptavidin beads were added to the samples.
(§2) Endogenous protein: HEK293T (10^7 cells) were lysed in 200 ul of "CHAPS-based buffer" (150 mM NaCl, 10 mM Hepes, pH 7.4, 1.0% CHAPS) containing protease inhibitors (100 times dilution of Protease Inhibitors Cocktail; Sigma) according to the previously reported method (Hsu and Youle, *J. Biol. Chem.* 273:10777–10783, 1998). After pre-cleaning of 600 ul of the sample with 50 ul of Protein G-Sepharose at 4° C. for 1 hour, immunoprecipitations were performed by incubating 200 ul of lysates with 20 ul of Protein G-Sepharose preabsorbed with 2 ug of anti-Bax polyclonal (BD-Pharmingen) or anti-Ku70 monoclonal antibody (BD-Pharmingen) at 4° C. for 2 hours. In some cases, 2 ug of anti-Bax monoclonal antibody (clone 6A7, BD Pharmingen) was used to detect active form of Bax. […]

[6] = target: T2, human Bax; assay: streptavidin bead pull-down from HEK293T CHAPS lysates, Western blot of Bax
Method: as §2, with “Bax. After extensive washing in the buffer, beads were boiled in 40 ul of Laemmli buffer and 20 ul of the eluted proteins were subjected to SDS-PAGE. *Co-precipitation of biotin-labeled peptides and endogenous Bax using streptavidin beads*: HEK293T cells (10^7 cells) lysed in 200 ul CHAPS-based buffer were incubated with biotin-labeled negative control (NC) peptide or VPMLK (V5; SEQ ID NO: 1) peptide for 1 hour. The concentrations of NC and V5 peptide labeled with biotin are described in the figure legends.” for “Bax.”

[7] = target: T3, Bak (human, UniProt Q16611 2-211); assay: streptavidin bead pull-down from HEK293T CHAPS lysates, Western blot of Bak
T3 sequence (looked up): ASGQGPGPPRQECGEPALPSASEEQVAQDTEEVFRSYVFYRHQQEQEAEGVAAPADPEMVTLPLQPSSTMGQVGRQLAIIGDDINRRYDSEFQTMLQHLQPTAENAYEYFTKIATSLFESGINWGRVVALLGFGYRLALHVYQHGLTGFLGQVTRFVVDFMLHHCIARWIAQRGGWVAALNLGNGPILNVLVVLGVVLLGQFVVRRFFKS

T2 sequence (Q07812 whole entry): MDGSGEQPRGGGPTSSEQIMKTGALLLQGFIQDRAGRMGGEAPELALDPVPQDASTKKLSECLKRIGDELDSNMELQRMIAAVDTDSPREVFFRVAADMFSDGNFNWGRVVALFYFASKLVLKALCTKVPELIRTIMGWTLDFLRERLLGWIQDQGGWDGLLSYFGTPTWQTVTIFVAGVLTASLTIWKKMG
T1 sequence (Q07813 whole entry): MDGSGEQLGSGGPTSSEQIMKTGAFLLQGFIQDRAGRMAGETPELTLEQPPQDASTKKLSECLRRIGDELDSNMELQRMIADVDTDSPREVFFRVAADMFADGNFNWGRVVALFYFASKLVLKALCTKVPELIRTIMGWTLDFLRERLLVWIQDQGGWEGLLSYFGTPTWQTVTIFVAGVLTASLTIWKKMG

Molecule: CSCC[C@H](NC(=O)[C@@H]1CCCN1C(=O)[C@@H](NC(=S)Nc1ccc2c(c1)C(=O)OC21c2ccc(O)cc2Oc2cc(O)ccc21)C(C)C)C(=O)N[C@@H](CC(C)C)C(=O)N[C@@H](CCCCN)C(=O)O [FITC-labeled BIP] ({FITC}-VPMLK-OH; N-terminus and C-terminus assumed)
Binding of FITC peptide to cellular components [1]: No significant binding

Molecule: COC(=O)C[C@H](NC(=O)[C@H](C)NC(=O)[C@@H](NC(=O)OCc1ccccc1)C(C)C)C(=O)CF [z-VAD-fmk] (Cbz-Val-Ala-Asp(OMe)-CH2F)
Suppression of Bax-induced apoptosis in cell culture [2]: showed anti-apoptotic activities | Suppression of Caspase activation [3]: suppresses STS-induced Caspase activation

Molecule: IPMIK [mutant of V5 with V and L changed to I, used as negative control peptide, reference compound]
Suppression of Bax-induced apoptosis in cell culture [2]: lost its activity to suppress apoptosis; also recorded: did not suppress Bax-mediated cell death | Interaction with Bax (precipitation from cell lysates) [4]: fails to interact with Bax

B1: IPMIK (SEQ ID NO: 5) negative control (NC) peptide (peptide)
peptide: IPMIK
notes: also called negative control peptide; mutant peptide IPMIK
binding result [5]: no binding

Results, then the molecule that gave them:

binding result [6]: no binding (tested: 200 uM)
B2: biotin-IPMIK (SEQ ID NO: 5) negative control peptide (peptide)
peptide: Biotin-IPMIK
notes: also called biotin-labeled negative control (NC) peptide

binding result [7]: no binding (tested: 200 uM)
B3: Biotin-labeled BIP (biotin-VPMLK; SEQ ID NO: 1) (peptide)
peptide: Biotin-VPMLK
notes: also called biotin-labeled V5 peptide (BIP)
